The text below walks through data of PMC8950706, “Influence of Substitutions in the Binding Motif of Proline-Rich Antimicrobial Peptide ARV-1502 on 70S Ribosome Binding and Antimicrobial Activity” (International Journal of Molecular Sciences, 2022).

Counter-ions that a name gives are not always drawn.

One experiment relates to E. coli 70S ribosome. Nature of the experiment: Competitive fluorescence polarization assay against Cf-ARV-1502 (Ki). Format: binding, E. coli BW25113. The settings on record: 20 nmol/L Cf-ARV-1502, 0.5 µmol/L ribosome, 28 °C, 90 min + 90 min, Ki calculated from IC50. How it is done:
E. coli 70S ribosomes were prepared using a previously described protocol that was slightly modified. Briefly, E. coli BW25113 was cultivated in Luria-Bertani (LB) medium and cells were harvested after reaching an optical density of ~4 at 600 nm by centrifugation (5000× g, 15 min, 4 °C, Rotor JLA 8.100, Avanti J-20 XP, Beckmann Coulter, Krefeld, Germany). The cell pellets were frozen and stored at −80 °C. Cells were resuspended in ribosome buffer (2 mL/g cells; 20 mmol/L HEPES-KOH, 6 mmol/L MgCl2, 30 mmol/L NH4Cl, 4 mmol/L 2-mercaptoethanol, pH 7.6). Lysozyme (0.25 g/L cell suspension) was added, and the mixture was incubated on ice for 30 min. Cells were disrupted using the bead mill homogenizer FastPrep-24™ 5G (40 s, 4 m/s, 6 cycles, MP Biomedicals Germany GmbH, Eschwege, Germany) and zirconia/silica beads (0.1 mm diameter). The lysate was centrifuged (1500× g, 5 min, 4 °C, Rotor S4180, Allegra 21R, Beckmann Coulter) and the supernatant was incubated with DNase (5 U/mL) on ice for 60 min.
Dissociation and inhibitory constants were determined in black 384-well-plates (Greiner Bio-One GmbH, Frickenhausen, Germany) blocked with 0.5% (w/v) casein in phosphate buffered saline (PBS, 8.8 mmol/L Na2HPO4×12 H2O, 1.2 mmol/L KH2PO4, 0.3 mol/L NaCl, pH 7.4) containing 0.05% (w/v) Tween® 20 (PBST) overnight at 4 °C and washed three times with PBST.
Ribosome solution was added (10 µmol/L) and the plate was incubated after centrifugation (2 min, 500× g, Rotor S2096, Allegra^TM 21R, Beckmann Coulter) at 28 °C for 90 min. Cf-labeled peptide was added (10 µL; final concentration of 20 nmol/L; final ribosome concentration of 0.5 µmol/L) and the plate was centrifuged and incubated again (90 min, 28 °C, dark). […] Kd and IC50 values were calculated by fitting the data with a variable slope parameter [y = min + (max − min)/(1 + (x/Kd) ^−Hill slope) ] using SigmaPlot 13 (Systat Software Inc., San Jose, CA, USA). The obtained IC50 values were used to calculate the Ki values.

The subject of another experiment is E. coli BW25113. The experiment is described as follows: Checkerboard assay (FICI). Format: cell-based, Escherichia coli. Particulars: E. coli BW25113, 25% MHB2; synergy FICI ≤ 0.5, antagonism FICI ≥ 4; Table S6. As for the experimental part:
Synergy was tested in sterile 96-well plates (polystyrene F-bottom, Greiner Bio-One GmbH) using a total volume of 100 μL per well. […] Plates were incubated (37 °C, 20 h) and the optical density recorded at 595 nm using a microplate reader (Victor3, Perkin Elmer Inc., Waltham, MA, USA). The fractional inhibitory concentration index (FICI) was calculated by the equation FICI = […] = (A/MICA) + (B/MICB), where MICA/B are the MICs of an antimicrobial peptide (A) and one of the three tested antibiotics (B) alone and A and B are the MICs of combined antimicrobials. Synergy was defined as FICI ≤ 0.5, antagonism as FICI ≥ 4 and additive or indifference as FICI between 0.5 and 4.

Turning to `NC[C@H]1O[C@H](O[C@H]2[C@H](O)[C@@H](O[C@H]3O[C@H](CO)[C@@H](O)[C@H](N)[C@H]3O)[C@H](N)C[C@@H]2N)[C@H](O)[C@@H](O)[C@@H]1O` [Kanamycin, kanamycin sulfate], the “Ki (nmol/L), competition with Cf-ARV-1502” value with E. coli 70S ribosome is “no fit”; with E. coli 70S ribosome (listed as kanamycin) it was “did not affect the binding of Cf-ARV-1502”. Besides, the “Checkerboard assay (FICI), antibiotic combined with peptide” value in the experiment on E. coli BW25113 is “neither synergistic nor antagonistic effects”.
